The source of these data is PubChem BioAssay AID248 (DTP/NCI, 2004).

For this test, the system named is L1210 leukemia ip in BDF1 mice, survival T/C. The test can be described thus: NCI In Vivo Anticancer Drug Screen. Data for tumor model L1210 Leukemia (intraperitoneal) in B6D2F1 (BDF1) mice. As to conditions: endpoint: mean survival time, higher = longer survival. A digest of the protocol:
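Transplantable tumor model; survival measured in treated vs vehicle control mice. Value = treated/control.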

The mark [1] stands for this setting: dose: 100.0 mg/kg/injection, schedule: Q01DX009 (ip), vehicle: saline.
[2] abbreviates: dose: 100.0 mg/kg/injection, schedule: Q04DX003 (ip), vehicle: saline.
Where [3] appears, read: dose: 200.0 mg/kg/injection, schedule: Q01DX009 (ip), vehicle: saline.
Setting [4] is: dose: 200.0 mg/kg/injection, schedule: Q04DX003 (ip), vehicle: saline.
[5] abbreviates: dose: 400.0 mg/kg/injection, schedule: Q04DX003 (ip), vehicle: saline.
Where [6] appears, read: dose: 6.25 mg/kg/injection, schedule: Q01DX009 (ip), vehicle: saline.
[7] abbreviates: dose: 6.25 mg/kg/injection, schedule: Q04DX003 (ip), vehicle: saline.
[8] abbreviates: dose: 12.5 mg/kg/injection, schedule: Q04DX003 (ip), vehicle: saline.
The mark [9] stands for this setting: dose: 400.0 mg/kg/injection, schedule: Q01DX009 (ip), vehicle: saline.
[10] abbreviates: dose: 100.0 mg/kg/injection, schedule: Q01DX009 (ip), vehicle: Klucel (hydroxypropylcellulose) (HPC).
Where [11] appears, read: dose: 200.0 mg/kg/injection, schedule: Q01DX009 (ip), vehicle: Klucel (hydroxypropylcellulose) (HPC).
The mark [12] stands for this setting: dose: 400.0 mg/kg/injection, schedule: Q01DX009 (ip), vehicle: Klucel (hydroxypropylcellulose) (HPC).

Values joined by “and” are separate entries in the source; they are usually repeats but may differ in a detail not shown here. Identical values can stand only once. Inconclusive results and toxic doses are left out.

In the case of `CC(O)C(=O)OCCOc1ccc(Cl)cc1Cl` (centres undefined), the T/C runs as follows: (dose: 50.0 mg/kg/injection, schedule: Q01DX009 (ip), vehicle: saline) 670 % of control; under setting [1], 91 % of control; under setting [2], 100 % of control; under setting [3], 95 % of control; under setting [4], 100 % of control; under setting [5], 97 % of control.

For `FC1(F)SC2CCCC2C1(F)F` (centres undefined), the T/C reads like this: (dose: 3.13 mg/kg/injection, schedule: Q01DX009 (ip), vehicle: saline with Tween-80) 95 % of control; (dose: 6.25 mg/kg/injection, schedule: Q01DX009 (ip), vehicle: saline with Tween-80) 106 % of control; (dose: 12.5 mg/kg/injection, schedule: Q01DX009 (ip), vehicle: saline with Tween-80) 95 % of control and 101 % of control; (dose: 12.5 mg/kg/injection, schedule: Q04DX003 (ip), vehicle: saline with Tween-80) 101 % of control; (dose: 25.0 mg/kg/injection, schedule: Q04DX003 (ip), vehicle: saline with Tween-80) 104 % of control; (dose: 50.0 mg/kg/injection, schedule: Q04DX003 (ip), vehicle: saline with Tween-80) 95 % of control.

Consider `CN(C)C(=O)NCc1cccnc1`, for which the T/C (dose: 100.0 mg/kg/injection, schedule: Q04DX013 (ip), vehicle: saline) is 100 % of control; the T/C (dose: 200.0 mg/kg/injection, schedule: Q04DX013 (ip), vehicle: saline) is 94 % of control; the T/C (dose: 400.0 mg/kg/injection, schedule: Q04DX013 (ip), vehicle: saline) is 101 % of control.

As to `Cc1ccc(C(C)C)cc1NC(=O)c1cccc([N+](=O)[O-])c1`, the T/C runs as follows: (dose: 100.0 mg/kg/injection, schedule: Q01DX009 (ip), vehicle: other) 98 % of control; (dose: 200.0 mg/kg/injection, schedule: Q01DX009 (ip), vehicle: other) 88 % of control; (dose: 400.0 mg/kg/injection, schedule: Q01DX009 (ip), vehicle: other) 98 % of control.

Regarding `C[N+](C)(C)CCOC(=O)c1ccccc1CBr`, the T/C reads like this: (dose: 1.5 mg/kg/injection, schedule: Q04DX002 (ip), vehicle: other) 98 % of control; (dose: 3.0 mg/kg/injection, schedule: Q04DX002 (ip), vehicle: other) 90 % of control; (dose: 3.13 mg/kg/injection, schedule: Q01DX009 (ip), vehicle: saline) 101 % of control; (dose: 6.0 mg/kg/injection, schedule: Q04DX002 (ip), vehicle: other) 105 % of control; under setting [6], 97 % of control; under setting [7], 105 % of control. For the same molecule, the T/C under setting [8] is 91 % of control.

Regarding `O=[N+]([O-])c1ccc(-c2ncc3cnccn23)cc1`, the T/C runs as follows: under setting [1], 90 % of control; under setting [2], 100 % of control; under setting [3], 90 % of control; under setting [4], 93 % of control; under setting [9], 91 % of control; under setting [5], 95 % of control.

Consider `COc1ccc(CCN2C(=O)c3cccc4c([N+](=O)[O-])ccc(c34)C2=O)cc1OC`, for which the T/C is 100 % of control under setting [10], 94 % of control under setting [11] and 93 % of control under setting [12].

Regarding `CC(=O)OC1CCC2(C)C(CCC3C2CCC2(C)C(C(C)CCO)CCC32)C1` (centres undefined), the T/C by setting is: (dose: 100.0 mg/kg/injection, schedule: Q04DX003 (sc), vehicle: steriod suspending solution) 95 % of control; (dose: 200.0 mg/kg/injection, schedule: Q04DX003 (sc), vehicle: steriod suspending solution) 104 % of control; (dose: 400.0 mg/kg/injection, schedule: Q04DX003 (sc), vehicle: steriod suspending solution) 100 % of control.

As to `O=C(Nc1ccccc1F)C(c1ccccc1)c1ccccc1`, the T/C runs as follows: under setting [10], 103 % of control; (dose: 100.0 mg/kg/injection, schedule: Q04DX003 (ip), vehicle: Klucel (hydroxypropylcellulose) (HPC)) 96 % of control; under setting [11], 93 % of control; (dose: 200.0 mg/kg/injection, schedule: Q04DX003 (ip), vehicle: Klucel (hydroxypropylcellulose) (HPC)) 95 % of control; under setting [12], 94 % of control; (dose: 400.0 mg/kg/injection, schedule: Q04DX003 (ip), vehicle: Klucel (hydroxypropylcellulose) (HPC)) 95 % of control.

With `C=CCOc1ccc(Cl)cc1`, the T/C (dose: 100.0 mg/kg/injection, schedule: Q04DX003 (ip), vehicle: saline with Tween-80) is 90 % of control and the T/C (dose: 200.0 mg/kg/injection, schedule: Q04DX003 (ip), vehicle: saline with Tween-80) was 94 % of control.

`COc1ccc(/C=C2\CCC3C(=O)CCCC3(C)C2=O)cc1` (centres undefined): the T/C by setting is: under setting [1], 95 % of control; under setting [2], 100 % of control; under setting [3], 104 % of control; under setting [4], 117 % of control; under setting [9], 101 % of control; under setting [5], 104 % of control.

With `NC(CC(=O)NCC(=O)O)C(=O)O` (centres undefined), the T/C by setting is: (dose: 12.5 mg/kg/injection, schedule: Q04DX002 (ip), vehicle: Klucel (hydroxypropylcellulose) (HPC)) 105 % of control; (dose: 25.0 mg/kg/injection, schedule: Q04DX002 (ip), vehicle: Klucel (hydroxypropylcellulose) (HPC)) 98 % of control; (dose: 50.0 mg/kg/injection, schedule: Q04DX002 (ip), vehicle: Klucel (hydroxypropylcellulose) (HPC)) 94 % of control.

Consider `O=c1ccnc(SCc2ccccc2Cl)[nH]1`, for which the T/C reads like this: (dose: 100.0 mg/kg/injection, schedule: Q01DX Z (ip), vehicle: methylcellulose (MC)) 91 % of control; (dose: 200.0 mg/kg/injection, schedule: Q01DX Z (ip), vehicle: methylcellulose (MC)) 91 % of control.

Consider `Cc1cc[n+](Cc2ccccc2Cl)cc1`, for which the T/C reads like this: under setting [6], 97 % of control; under setting [7], 96 % of control; (dose: 12.5 mg/kg/injection, schedule: Q01DX009 (ip), vehicle: saline) 97 % of control; under setting [8], 107 % of control; (dose: 25.0 mg/kg/injection, schedule: Q01DX009 (ip), vehicle: saline) 100 % of control; (dose: 25.0 mg/kg/injection, schedule: Q04DX003 (ip), vehicle: saline) 89 % of control.

On to `CCCCC(=O)N(CC(C)C)CC(C)C`, for which the T/C is, setting by setting: (dose: 25.0 mg/kg/injection, schedule: Q04DX002 (ip), vehicle: carboxymethylcellulose (CMC)) 95 % of control; (dose: 50.0 mg/kg/injection, schedule: Q01DX001 (ip), vehicle: carboxymethylcellulose (CMC)) 95 % of control; (dose: 50.0 mg/kg/injection, schedule: Q01DX009 (ip), vehicle: carboxymethylcellulose (CMC)) 98 % of control and 120 % of control; (dose: 50.0 mg/kg/injection, schedule: Q04DX002 (ip), vehicle: carboxymethylcellulose (CMC)) 100 % of control and 102 % of control; (dose: 50.0 mg/kg/injection, schedule: Q04DX003 (ip), vehicle: carboxymethylcellulose (CMC)) 101 % of control; (dose: 100.0 mg/kg/injection, schedule: Q01DX001 (ip), vehicle: carboxymethylcellulose (CMC)) 97 % of control. For the same molecule, the T/C reads like this: (dose: 100.0 mg/kg/injection, schedule: Q01DX009 (ip), vehicle: carboxymethylcellulose (CMC)) 95 % of control and 103 % of control; (dose: 100.0 mg/kg/injection, schedule: Q04DX002 (ip), vehicle: carboxymethylcellulose (CMC)) 98 % of control and 103 % of control and 105 % of control; (dose: 100.0 mg/kg/injection, schedule: Q04DX003 (ip), vehicle: carboxymethylcellulose (CMC)) 95 % of control; (dose: 200.0 mg/kg/injection, schedule: Q01DX001 (ip), vehicle: carboxymethylcellulose (CMC)) 88 % of control; (dose: 200.0 mg/kg/injection, schedule: Q01DX009 (ip), vehicle: carboxymethylcellulose (CMC)) 103 % of control and 92 % of control; (dose: 200.0 mg/kg/injection, schedule: Q04DX002 (ip), vehicle: carboxymethylcellulose (CMC)) 92 % of control. Moreover, the T/C is 101 % of control (dose: 200.0 mg/kg/injection, schedule: Q04DX003 (ip), vehicle: carboxymethylcellulose (CMC)) and 102 % of control (dose: 400.0 mg/kg/injection, schedule: Q04DX002 (ip), vehicle: carboxymethylcellulose (CMC)).

Consider `O=C(O)COc1ccc(F)cn1`, for which the T/C by setting is: (dose: 100.0 mg/kg/injection, schedule: Q04DX002 (ip), vehicle: Klucel (hydroxypropylcellulose) (HPC)) 101 % of control; (dose: 200.0 mg/kg/injection, schedule: Q04DX002 (ip), vehicle: Klucel (hydroxypropylcellulose) (HPC)) 93 % of control; (dose: 400.0 mg/kg/injection, schedule: Q04DX002 (ip), vehicle: Klucel (hydroxypropylcellulose) (HPC)) 114 % of control.
